# Source: the supplement of paper PMC10307832
# What was measured:
# Assay in all cases: relative viability (nuclei count vs DMSO), 5 days (fraction); higher = more cells survive
# Cediranib + Decitabine = compound: COc1cc2c(Oc3ccc4[nH]c(C)cc4c3F)ncnc2cc1OCCCN1CCCC1 [Cediranib] + Nc1ncn([C@H]2C[C@H](O)[C@@H](CO)O2)c(=O)n1 [Decitabine] (partner 2 µM)
# How it was run: (§1)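 Lung cancer cell lines in 1536-well plates were dosed by pin tool the day after seeding, either with one drug alone or with a fixed anchor-drug dose plus five library-drug doses (not always all listed) in √10 steps. After 5 days, cells were fixed and their nuclei stained in one step (final 0.05% Triton X-100, 1% formaldehyde, 1 ug/ml Hoechst), then counted on 4× images. Relative viability is the nuclei count in treated wells divided by that in vehicle wells. Values are medians of duplicate plates.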
# Decitabine + OSI-027 = compound: Nc1ncn([C@H]2C[C@H](O)[C@@H](CO)O2)c(=O)n1 [Decitabine] + COc1cccc2cc(-c3nc([C@H]4CC[C@H](C(=O)O)CC4)n4ncnc(N)c34)[nH]c12 [OSI-027] (partner 0.5 µM)
# How it was run: as §1
# Decitabine + Crizotinib = compound: Nc1ncn([C@H]2C[C@H](O)[C@@H](CO)O2)c(=O)n1 [Decitabine] + C[C@@H](Oc1cc(-c2cnn(C3CCNCC3)c2)cnc1N)c1c(Cl)ccc(F)c1Cl [Crizotinib] (partner 1 µM)
# How it was run: as §1
# [1] = compound: O=C(C[C@H]1NCCC[C@@H]1O)Cn1cnc2cc(Br)c(Cl)cc2c1=O (racemic) [Halofuginone] + N=C(N)NC(=N)NCCc1ccccc1 [Phenformin] (partner 250 µM)
# How it was run: as §1
cell line,measurement,setting,value
NCI-H727,relative viability,Cediranib + Decitabine; first compound 0.04 µM,0.818
same,relative viability,Cediranib + Decitabine; first compound 0.1265 µM,0.692
same,relative viability,Cediranib + Decitabine; first compound 0.4 µM,0.793
same,relative viability,Cediranib + Decitabine; first compound 1.265 µM,0.894
same,relative viability,Cediranib + Decitabine; first compound 4 µM,0.909
same,relative viability,Decitabine + OSI-027; first compound 0.04 µM,0.485
same,relative viability,Decitabine + OSI-027; first compound 0.1265 µM,0.65
same,relative viability,Decitabine + OSI-027; first compound 0.4 µM,0.477
same,relative viability,Decitabine + OSI-027; first compound 1.265 µM,0.57
same,relative viability,Decitabine + OSI-027; first compound 4 µM,0.426
same,relative viability,Decitabine + Crizotinib; first compound 0.04 µM,0.711
same,relative viability,Decitabine + Crizotinib; first compound 0.1265 µM,0.513
same,relative viability,Decitabine + Crizotinib; first compound 0.4 µM,0.537
same,relative viability,Decitabine + Crizotinib; first compound 1.265 µM,0.341
same,relative viability,Decitabine + Crizotinib; first compound 4 µM,0.33
same,relative viability,[1]; first compound 0.001 µM,0.784
same,relative viability,[1]; first compound 0.003162 µM,0.577
same,relative viability,[1]; first compound 0.01 µM,0.422
same,relative viability,[1]; first compound 0.03162 µM,0.628
same,relative viability,[1]; first compound 0.1 µM,0.317
NCI-H358,relative viability,Cediranib + Decitabine; first compound 0.04 µM,0.214
same,relative viability,Cediranib + Decitabine; first compound 0.1265 µM,0.256
same,relative viability,Cediranib + Decitabine; first compound 0.4 µM,0.215
same,relative viability,Cediranib + Decitabine; first compound 1.265 µM,0.186
same,relative viability,Cediranib + Decitabine; first compound 4 µM,0.213
same,relative viability,Decitabine + OSI-027; first compound 0.04 µM,0.372
same,relative viability,Decitabine + OSI-027; first compound 0.1265 µM,0.254
same,relative viability,Decitabine + OSI-027; first compound 0.4 µM,0.2
same,relative viability,Decitabine + OSI-027; first compound 1.265 µM,0.113
same,relative viability,Decitabine + OSI-027; first compound 4 µM,0.12
same,relative viability,Decitabine + Crizotinib; first compound 0.04 µM,0.385
same,relative viability,Decitabine + Crizotinib; first compound 0.1265 µM,0.39
same,relative viability,Decitabine + Crizotinib; first compound 0.4 µM,0.246
same,relative viability,Decitabine + Crizotinib; first compound 1.265 µM,0.192
same,relative viability,Decitabine + Crizotinib; first compound 4 µM,0.161
same,relative viability,[1]; first compound 0.001 µM,0.303
same,relative viability,[1]; first compound 0.003162 µM,0.312
same,relative viability,[1]; first compound 0.01 µM,0.261
same,relative viability,[1]; first compound 0.03162 µM,0.189
same,relative viability,[1]; first compound 0.1 µM,0.079
NCI-H1437,relative viability,Cediranib + Decitabine; first compound 0.04 µM,0.67
same,relative viability,Cediranib + Decitabine; first compound 0.1265 µM,0.602
same,relative viability,Cediranib + Decitabine; first compound 0.4 µM,0.621
same,relative viability,Cediranib + Decitabine; first compound 1.265 µM,0.562
same,relative viability,Cediranib + Decitabine; first compound 4 µM,0.639
same,relative viability,Decitabine + OSI-027; first compound 0.04 µM,0.717
same,relative viability,Decitabine + OSI-027; first compound 0.1265 µM,0.732
same,relative viability,Decitabine + OSI-027; first compound 0.4 µM,0.495
same,relative viability,Decitabine + OSI-027; first compound 1.265 µM,0.382
same,relative viability,Decitabine + OSI-027; first compound 4 µM,0.3
same,relative viability,Decitabine + Crizotinib; first compound 0.04 µM,0.692
same,relative viability,Decitabine + Crizotinib; first compound 0.1265 µM,0.748
same,relative viability,Decitabine + Crizotinib; first compound 0.4 µM,0.632
same,relative viability,Decitabine + Crizotinib; first compound 1.265 µM,0.297
same,relative viability,Decitabine + Crizotinib; first compound 4 µM,0.216
same,relative viability,[1]; first compound 0.001 µM,0.329
same,relative viability,[1]; first compound 0.003162 µM,0.308
same,relative viability,[1]; first compound 0.01 µM,0.3
same,relative viability,[1]; first compound 0.03162 µM,0.297
same,relative viability,[1]; first compound 0.1 µM,0.258
NCI-H441,relative viability,Cediranib + Decitabine; first compound 0.04 µM,0.288
same,relative viability,Cediranib + Decitabine; first compound 0.1265 µM,0.234
same,relative viability,Cediranib + Decitabine; first compound 0.4 µM,0.275
same,relative viability,Cediranib + Decitabine; first compound 1.265 µM,0.251
same,relative viability,Cediranib + Decitabine; first compound 4 µM,0.286
same,relative viability,Decitabine + OSI-027; first compound 0.04 µM,0.415
same,relative viability,Decitabine + OSI-027; first compound 0.1265 µM,0.441
same,relative viability,Decitabine + OSI-027; first compound 0.4 µM,0.246
same,relative viability,Decitabine + OSI-027; first compound 1.265 µM,0.261
same,relative viability,Decitabine + OSI-027; first compound 4 µM,0.255
same,relative viability,Decitabine + Crizotinib; first compound 0.04 µM,0.361
same,relative viability,Decitabine + Crizotinib; first compound 0.1265 µM,0.224
same,relative viability,Decitabine + Crizotinib; first compound 0.4 µM,0.223
same,relative viability,Decitabine + Crizotinib; first compound 1.265 µM,0.188
same,relative viability,Decitabine + Crizotinib; first compound 4 µM,0.184
same,relative viability,[1]; first compound 0.001 µM,0.976
same,relative viability,[1]; first compound 0.003162 µM,1.05
same,relative viability,[1]; first compound 0.01 µM,0.87
same,relative viability,[1]; first compound 0.03162 µM,0.839
same,relative viability,[1]; first compound 0.1 µM,0.564
EMC-BAC-2,relative viability,Cediranib + Decitabine; first compound 0.04 µM,0.953
same,relative viability,Cediranib + Decitabine; first compound 0.4 µM,0.989
same,relative viability,Cediranib + Decitabine; first compound 1.265 µM,0.918
same,relative viability,Cediranib + Decitabine; first compound 4 µM,1.04
same,relative viability,Decitabine + OSI-027; first compound 0.04 µM,0.39
same,relative viability,Decitabine + OSI-027; first compound 0.1265 µM,0.4
same,relative viability,Decitabine + OSI-027; first compound 0.4 µM,0.286
same,relative viability,Decitabine + OSI-027; first compound 1.265 µM,0.344
same,relative viability,Decitabine + OSI-027; first compound 4 µM,0.363
same,relative viability,Decitabine + Crizotinib; first compound 0.04 µM,0.64
same,relative viability,Decitabine + Crizotinib; first compound 0.1265 µM,0.656
same,relative viability,Decitabine + Crizotinib; first compound 0.4 µM,0.454
same,relative viability,Decitabine + Crizotinib; first compound 1.265 µM,0.483
same,relative viability,Decitabine + Crizotinib; first compound 4 µM,0.402
same,relative viability,[1]; first compound 0.001 µM,0.615
same,relative viability,[1]; first compound 0.003162 µM,0.546
same,relative viability,[1]; first compound 0.01 µM,0.503
same,relative viability,[1]; first compound 0.03162 µM,0.521
same,relative viability,[1]; first compound 0.1 µM,0.338
NCI-H647,relative viability,Cediranib + Decitabine; first compound 0.04 µM,0.415
same,relative viability,Cediranib + Decitabine; first compound 0.1265 µM,0.414
same,relative viability,Cediranib + Decitabine; first compound 0.4 µM,0.448
same,relative viability,Cediranib + Decitabine; first compound 1.265 µM,0.349
same,relative viability,Cediranib + Decitabine; first compound 4 µM,0.405
same,relative viability,Decitabine + OSI-027; first compound 0.04 µM,0.648
same,relative viability,Decitabine + OSI-027; first compound 0.1265 µM,0.549
same,relative viability,Decitabine + OSI-027; first compound 0.4 µM,0.403
same,relative viability,Decitabine + OSI-027; first compound 1.265 µM,0.152
same,relative viability,Decitabine + OSI-027; first compound 4 µM,0.201
same,relative viability,Decitabine + Crizotinib; first compound 0.04 µM,0.852
same,relative viability,Decitabine + Crizotinib; first compound 0.1265 µM,0.704
same,relative viability,Decitabine + Crizotinib; first compound 0.4 µM,0.549
same,relative viability,Decitabine + Crizotinib; first compound 1.265 µM,0.211
same,relative viability,Decitabine + Crizotinib; first compound 4 µM,0.174
same,relative viability,[1]; first compound 0.001 µM,0.659
same,relative viability,[1]; first compound 0.003162 µM,0.642
same,relative viability,[1]; first compound 0.01 µM,0.544
same,relative viability,[1]; first compound 0.03162 µM,0.368
same,relative viability,[1]; first compound 0.1 µM,0.195
CAL-12T,relative viability,Decitabine + OSI-027; first compound 0.04 µM,0.558
same,relative viability,Decitabine + OSI-027; first compound 0.1265 µM,0.612
same,relative viability,Decitabine + OSI-027; first compound 1.265 µM,0.305
same,relative viability,Decitabine + OSI-027; first compound 4 µM,0.268
same,relative viability,Decitabine + Crizotinib; first compound 0.04 µM,0.612
same,relative viability,Decitabine + Crizotinib; first compound 0.1265 µM,0.664
same,relative viability,Decitabine + Crizotinib; first compound 0.4 µM,0.174
same,relative viability,Decitabine + Crizotinib; first compound 1.265 µM,0.416
same,relative viability,Decitabine + Crizotinib; first compound 4 µM,0.222
same,relative viability,[1]; first compound 0.001 µM,0.582
same,relative viability,[1]; first compound 0.003162 µM,0.592
same,relative viability,[1]; first compound 0.01 µM,0.555
same,relative viability,[1]; first compound 0.03162 µM,0.603
same,relative viability,[1]; first compound 0.1 µM,0.509
NCI-H1792,relative viability,Cediranib + Decitabine; first compound 0.1265 µM,0.503
same,relative viability,Cediranib + Decitabine; first compound 0.4 µM,0.48
same,relative viability,Cediranib + Decitabine; first compound 1.265 µM,0.501
same,relative viability,Cediranib + Decitabine; first compound 4 µM,0.715
same,relative viability,Decitabine + OSI-027; first compound 0.04 µM,0.74
same,relative viability,Decitabine + OSI-027; first compound 0.1265 µM,0.727
same,relative viability,Decitabine + OSI-027; first compound 0.4 µM,0.712
same,relative viability,Decitabine + OSI-027; first compound 1.265 µM,0.539
same,relative viability,Decitabine + OSI-027; first compound 4 µM,0.505
same,relative viability,Decitabine + Crizotinib; first compound 0.04 µM,0.97
same,relative viability,Decitabine + Crizotinib; first compound 0.1265 µM,1.01
same,relative viability,Decitabine + Crizotinib; first compound 0.4 µM,0.948
same,relative viability,Decitabine + Crizotinib; first compound 1.265 µM,0.501
same,relative viability,Decitabine + Crizotinib; first compound 4 µM,0.553
same,relative viability,[1]; first compound 0.001 µM,0.233
same,relative viability,[1]; first compound 0.003162 µM,0.29
same,relative viability,[1]; first compound 0.01 µM,0.256
same,relative viability,[1]; first compound 0.03162 µM,0.223
same,relative viability,[1]; first compound 0.1 µM,0.184
